According to PubChem BioAssay (NCI):
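In this assay, cells in 96-well plates receive the compound at five concentrations for 48 hours. Endpoints are linearly interpolated between the surrounding concentrations. GI50 = concentration required for 50% inhibition of growth. TGI denotes the concentration required for complete inhibition of growth.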 Where a SMILES comes first, the peptide text is derived from it. The star is where a group is joined. Cbz = O=C(OCc1ccccc1)*; OBn = c1ccc(CO*)cc1

What was measured:
Experiment in all cases: DTP human tumour cell line panel, 48 h
[1] = system: SW-620 colon
[2] = system: HT29 colon
[3] = system: TK-10 renal
[4] = system: OVCAR-5 ovarian
[5] = system: A498 renal
[6] = system: RPMI-8226 leukemia
[7] = system: COLO 205 colon
[8] = system: SK-OV-3 ovarian
[9] = system: CCRF-CEM leukemia
[10] = system: RXF 393 renal

SMILES	TGI [1] [µM]	TGI [2] [µM]	TGI [3] [µM]	TGI [4] [µM]	TGI [5] [µM]	TGI [6] [µM]	TGI [7] [µM]	TGI [8] [µM]	TGI [9] [µM]	GI50 [1] [µM]	GI50 [2] [µM]	GI50 [3] [µM]	GI50 [6] [µM]	GI50 [7] [µM]	GI50 [10] [µM]	TGI [10] [µM]	GI50 [8] [µM]	GI50 [9] [µM]	GI50 [5] [µM]
Cn1c(O)c(C(=O)Nc2cccs2)c(=O)[nH]c1=S	87.6	34	61.6	69.5	35.8	49.1	30.2	72.5	> 100										
N#CC(C#N)=CN1CCN(C(=O)c2ccco2)C1=S	> 100	> 100	32.7			> 100	70.5	86.5	> 100	5.62	27.7	4.62	4.53	16.5	2.63	6.6	33.1	79.7	
C=C1C(=O)C([Si](C)(C)C)=C2C=C(C)C3(CC3)C12C (centres undefined)	> 100	48.7	> 100	> 100	> 100	15.3	36.4		11							60.5			
O=C(NO)c1ccc([N+](=O)[O-])cc1	> 100	> 100	> 100		85.4	> 100	94	> 100	> 100							71.8			
CC1CC2OC(=O)C3CC(O)CC(=C23)[C@@]12C[C@@H](c1ccoc1)OC2=O (some centres undefined)	> 100	> 100	> 100	> 100		> 100	> 100	> 100	> 100							> 100			
COc1ccc(/C=C2\OC(=O)C(Cl)=C2c2ccc(OC)cc2)cc1	> 100	> 100	> 100		> 100	> 100	> 100	> 100	> 100										
CCOC(=O)/C(N=Nc1ccc(-n2c(C)nc3ccccc3c2=O)cc1)=C(/C)O	> 100	> 100	> 100	> 100	> 100	> 100	> 100	> 100	> 100										
Nc1ccn(C2CC(O)C(COP(O)(=S)OC3CC(n4ccc(N)nc4=O)OC3CO)O2)c(=O)n1 (centres undefined)	> 100	> 100	> 100	> 100		> 100	> 100		> 100										
COc1cc(/C=C\c2ccccn2)cc(OC)c1OC	> 100	> 100	> 100	> 100	> 100	> 100	> 100		> 100							> 100			
O=c1c2cc(S(=O)(=O)Nc3ccccc3Cl)ccc2ncn1NS(=O)(=O)c1ccc(Br)cc1	> 37.5	> 37.5	> 37.5	> 37.5		> 37.5	> 37.5	> 37.5	> 37.5										
COc1ccccc1C1CC(=O)CC(c2ccccc2OC)C12C(=O)NC(=S)NC2=O (centres undefined)	> 100	> 100	> 100	> 100		52.7	> 100		> 100							> 100			
CN(C(=O)C12C3C4C1C1C2C3C41I)C(C)(C)C (centres undefined)	> 100	> 100	> 100	> 100	> 100	> 100	> 100	> 100	> 43										
COc1ccc2c(c1)CC[C@@H]1[C@@H]2CC[C@]2(C)C(=O)C3(CCCCC3)C[C@@H]12	> 100	> 100	> 100		> 100	> 100	> 100	> 100	> 100	> 100	79.5	> 100	> 100	> 100	> 100	> 100	> 100	> 100	> 100
N#CC1(C#N)C2CCCCC23OC(=N)C1(C#N)C(c1ccco1)O3 (centres undefined)	52.3	> 100	36.1	61.8	57.7		31.6	> 100	> 100							59.1			
Cn1nc(Cc2ccc(Cl)cc2)n(N)c1=O	> 100	> 100	> 100	> 100	> 100	> 100										> 100			
CCOC(C[C@H](O)[C@H]1COC(=S)S1)OCC	> 100	> 100	> 100			> 100	> 100									> 100			
O=c1[nH]c(=O)n(C2OC(CO)C(O)C(F)C2O)cc1F (centres undefined)	> 100	> 100	> 100	> 100	> 100	> 100	> 100	> 100	> 100										
CC(C)=CCCC1(C)C=Cc2c(c(C)cc3c2[nH]c2cc(O)ccc23)O1 (centres undefined)	> 25	> 25	> 25	> 25		> 25	> 25	> 25	> 25							> 25			
COC(=O)CNC(=O)C(C)NC(=O)C(CC(=O)OCc1ccccc1)NC(=O)OCc1ccccc1 (stereo not drawn) (Cbz-Asp(OBn)-Ala-Gly-OMe; configuration not given here)	> 100	> 100	> 100	> 100		> 100	> 100	> 100								68.6			
COC(=O)N1C[C@@]2(C=CC3(CC2)OCCO3)c2ccccc21	> 100	> 100	> 100	> 100	> 100	> 100	> 100	> 100	> 100										
CN(C)c1ccc(/C=C/C=C\C2=CC(=C\C=C/C=C3C=CC(=[N+](C)C)C=C3)/Sc3ccccc32)cc1	> 100	> 100	> 100	> 100	> 100	> 100	78.3	> 100								32.7			
